From patent US5112858A, “Antibiotic, aranorosin, a microbiological process for the preparation thereof, and the use thereof as a pharmaceutical” (Hoechst Aktiengesellschaft, priority 1988, dated 1992)
≈ marks a conversion by molar mass, not a printed value.

How the values were obtained:
[1] = system: Gram-positive and Gram-negative bacteria as well as yeasts and filamentous fungi; assay: Antibacterial and antifungal activity (summary statement); assay type: cell-based
From the text: (§1) The minimum inhibitory concentrations of the new antibiotic aranorosin required to inhibit various strains of bacteria and fungi are listed in Table I.

Solubility = assay type: physicochemical
[2] = system: malignant tumors and leukemias; assay: Cytostatic activity (statement); assay type: cell-based; conditions: general statement, no data given
Aspergillus niger = assay: MIC against bacteria and fungi (Table I); assay type: cell-based; conditions: read-out: Minimum inhibitory concentration (MIC)
From the text: as §1

[3] = system: Klebsiella aerogenes 1082 E; assay: MIC against bacteria and fungi (Table I); assay type: cell-based; conditions: read-out: Minimum inhibitory concentration (MIC)
From the text: as §1

Candida albicans = assay: MIC against bacteria and fungi (Table I); assay type: cell-based; conditions: read-out: Minimum inhibitory concentration (MIC)
From the text: as §1

[4] = system: Staphylococcus aureus 209 P; assay: MIC against bacteria and fungi (Table I); assay type: cell-based; conditions: read-out: Minimum inhibitory concentration (MIC)
From the text: as §1

Microspora gypseum = assay: MIC against bacteria and fungi (Table I); assay type: cell-based; conditions: read-out: Minimum inhibitory concentration (MIC)
From the text: as §1

Penicillium italicum = assay: MIC against bacteria and fungi (Table I); assay type: cell-based; conditions: read-out: Minimum inhibitory concentration (MIC)
From the text: as §1

[5] = system: Enterobacter cloacae 1321 E; assay: MIC against bacteria and fungi (Table I); assay type: cell-based; conditions: read-out: Minimum inhibitory concentration (MIC)
From the text: as §1

Bacillus subtilis = assay: MIC against bacteria and fungi (Table I); assay type: cell-based; conditions: read-out: Minimum inhibitory concentration (MIC)
From the text: as §1

Botrytis cinerea = assay: MIC against bacteria and fungi (Table I); assay type: cell-based; conditions: read-out: Minimum inhibitory concentration (MIC)
From the text: as §1

[6] = system: Streptococcus pyogenes 77 A; assay: MIC against bacteria and fungi (Table I); assay type: cell-based; conditions: read-out: Minimum inhibitory concentration (MIC)
From the text: as §1

[7] = system: Pseudomonas aeruginosa ATCC 9027; assay: MIC against bacteria and fungi (Table I); assay type: cell-based; conditions: ATCC9027, read-out: Minimum inhibitory concentration (MIC)
From the text: as §1

Streptococcus faecalis = assay: MIC against bacteria and fungi (Table I); assay type: cell-based; conditions: Enterococcus faecalis, read-out: Minimum inhibitory concentration (MIC)
From the text: as §1

Saccaromyces cerevisiae = assay: MIC against bacteria and fungi (Table I); assay type: cell-based; conditions: read-out: Minimum inhibitory concentration (MIC)
From the text: as §1

[8] = system: Enterobacter cloacae P 99; assay: MIC against bacteria and fungi (Table I); assay type: cell-based; conditions: P99, read-out: Minimum inhibitory concentration (MIC)
From the text: as §1

[9] = system: Staphylococcus aureus R 85; assay: MIC against bacteria and fungi (Table I); assay type: cell-based; conditions: R85, read-out: Minimum inhibitory concentration (MIC)
From the text: as §1

[10] = system: Streptococcus pyogenes 308A; assay: MIC against bacteria and fungi (Table I); assay type: cell-based; conditions: read-out: Minimum inhibitory concentration (MIC)
From the text: as §1

[11] = system: Pseudomonas aeruginosa 1771 M; assay: MIC against bacteria and fungi (Table I); assay type: cell-based; conditions: read-out: Minimum inhibitory concentration (MIC)
From the text: as §1

Sarcina lutea = assay: MIC against bacteria and fungi (Table I); assay type: cell-based; conditions: Micrococcus luteus, read-out: Minimum inhibitory concentration (MIC)
From the text: as §1

E. coli DC 2 = assay: MIC against bacteria and fungi (Table I); assay type: cell-based; conditions: Escherichia coli, DC2, read-out: Minimum inhibitory concentration (MIC)
From the text: as §1

Salmonella typhimurium = assay: MIC against bacteria and fungi (Table I); assay type: cell-based; conditions: Salmonella enterica, read-out: Minimum inhibitory concentration (MIC)
From the text: as §1

[12] = system: Staphylococcus aureus SG 511; assay: MIC against bacteria and fungi (Table I); assay type: cell-based; conditions: SG511, read-out: Minimum inhibitory concentration (MIC)
From the text: as §1

E. coli 1507 E = assay: MIC against bacteria and fungi (Table I); assay type: cell-based; conditions: Escherichia coli, read-out: Minimum inhibitory concentration (MIC)
From the text: as §1

Cercospora beticola = assay: MIC against bacteria and fungi (Table I); assay type: cell-based; conditions: read-out: Minimum inhibitory concentration (MIC)
From the text: as §1

[13] = system: Staphylococcus aureus 503; assay: MIC against bacteria and fungi (Table I); assay type: cell-based; conditions: read-out: Minimum inhibitory concentration (MIC)
From the text: as §1

[14] = system: Staphylococcus aureus 285; assay: MIC against bacteria and fungi (Table I); assay type: cell-based; conditions: read-out: Minimum inhibitory concentration (MIC)
From the text: as §1

[15] = system: Pseudomonas aeruginosa 1771; assay: MIC against bacteria and fungi (Table I); assay type: cell-based; conditions: read-out: Minimum inhibitory concentration (MIC)
From the text: as §1

E. coli TEM = assay: MIC against bacteria and fungi (Table I); assay type: cell-based; conditions: Escherichia coli, read-out: Minimum inhibitory concentration (MIC)
From the text: as §1

[16] = system: Klebsiella aerogenes 1522 E; assay: MIC against bacteria and fungi (Table I); assay type: cell-based; conditions: read-out: Minimum inhibitory concentration (MIC)
From the text: as §1

[17] = system: Pseudomonas aeruginosa 1592 E; assay: MIC against bacteria and fungi (Table I); assay type: cell-based; conditions: read-out: Minimum inhibitory concentration (MIC)
From the text: as §1

E. coli Ese 2231 = assay: MIC against bacteria and fungi (Table I); assay type: cell-based; conditions: Escherichia coli, ESE2231, read-out: Minimum inhibitory concentration (MIC)
From the text: as §1

E. coli 055 = assay: MIC against bacteria and fungi (Table I); assay type: cell-based; conditions: Escherichia coli, read-out: Minimum inhibitory concentration (MIC)
From the text: as §1

E. coli DC O = assay: MIC against bacteria and fungi (Table I); assay type: cell-based; conditions: Escherichia coli, read-out: Minimum inhibitory concentration (MIC)
From the text: as §1

[18] = system: Staphylococcus aureus 20204; assay: MIC against bacteria and fungi (Table I); assay type: cell-based; conditions: read-out: Minimum inhibitory concentration (MIC)
From the text: as §1

CCCCCCC(C)/C=C(C)/C=C/C(=O)NC1CC2(OC1O)C1OC1C(=O)C1OC12 (stereo not shown) [aranorosin]
effectiveness against bacteria, yeasts and filamentous fungi ([1]; conclusion from Table I): effective against Gram-positive and Gram-negative bacteria as well as yeasts and filamentous fungi
bactericidal and fungicidal properties ([1]; general statement): has bactericidal and fungicidal properties
Solubility (Solubility; in benzene): sparingly soluble
Solubility (Solubility; in diethyl ether, chloroform, acetone, ethyl acetate, dimethyl sulfoxide and methanol): soluble
Solubility (Solubility; in petroleum ether): Insoluble
Solubility (Solubility; in water): Insoluble
cytostatic properties [2]: has cytostatic properties
MIC (Aspergillus niger): 7.5 µg/mL (≈ 17.9 µM)
MIC [3]: 50 µg/mL (≈ 119 µM)
MIC (Candida albicans): 30 µg/mL (≈ 71.5 µM)
MIC [4]: 1.5 µg/mL (≈ 3.58 µM)
MIC (Microspora gypseum): 3 µg/mL (≈ 7.15 µM)
MIC (Penicillium italicum): 30 µg/mL (≈ 71.5 µM)
MIC [5]: 100 µg/mL (≈ 238 µM)
MIC (Bacillus subtilis): 1.5 µg/mL (≈ 3.58 µM)
MIC (Botrytis cinerea): 30 µg/mL (≈ 71.5 µM)
MIC [6]: 0.78 µg/mL (≈ 1.86 µM)
MIC [7]: > 100 µg/mL
MIC (Streptococcus faecalis): 3 µg/mL (≈ 7.15 µM)
MIC (Saccaromyces cerevisiae): 500 µg/mL (≈ 1190 µM)
MIC [8]: 100 µg/mL (≈ 238 µM)
MIC [9]: 1.5 µg/mL (≈ 3.58 µM)
MIC [10]: 0.78 µg/mL (≈ 1.86 µM)
MIC [11]: 50 µg/mL (≈ 119 µM)
MIC (Sarcina lutea): 1.5 µg/mL (≈ 3.58 µM)
MIC (E. coli DC 2): 25 µg/mL (≈ 59.6 µM)
MIC (Salmonella typhimurium): 50 µg/mL (≈ 119 µM)
MIC [12]: 0.78 µg/mL (≈ 1.86 µM)
MIC (E. coli 1507 E): 100 µg/mL (≈ 238 µM)
MIC (Cercospora beticola): 3 µg/mL (≈ 7.15 µM)
MIC [13]: 0.78 µg/mL (≈ 1.86 µM)
MIC [14]: 0.78 µg/mL (≈ 1.86 µM)
MIC [15]: > 100 µg/mL
MIC (E. coli TEM): 100 µg/mL (≈ 238 µM)
MIC [16]: 100 µg/mL (≈ 238 µM)
MIC [17]: > 100 µg/mL
MIC (E. coli Ese 2231): > 200 µg/mL
MIC (E. coli 055): 100 µg/mL (≈ 238 µM)
MIC (E. coli DC O): 100 µg/mL (≈ 238 µM)
MIC [18]: 1.5 µg/mL (≈ 3.58 µM)
